Counter-ions that a name gives are not always drawn.
Assays:
[1] = system: primary human fibroblasts; test: Variations of mitochondrial relationship with the cytoskeleton (area containing entwined mitochondria); conditions: area containing entwined mitochondria in percent of total cell area; FIG. 4 for paclitaxel
[2] = system: primary human fibroblasts; test: Variations of mitochondrial motility; format: cell-based; conditions: 0.1 μM, 30 minutes to 16 hours at 37° C, vs vehicle; FIG. 2
Method: The speed of an organelle' movements is measured by the displacement in μm of this organelle within the lapse of two captured frames. This measure is repeated over the total length of the image capture. Speed can be expressed as an average velocity observed for an organelle over the duration of the capture or by the maximal velocity observed for an organelle over the same duration.
The amplitude of organelle movements is expressed as a variable of the frequency of bursts in the total displacement of one organelle. A burst is defined as a sudden displacement within 30% of the maximal displacements of an organelle during the period of capture.
The frequency of organelle movements is expressed as a number of periods during which the organelle remains immobile.
(§1) Images were captured for 20-40 frames every 3-15 sec on a z scale spanning 1 μm around the initial center of focus. Z slides were reconstructed to generate a movie that was further analyzed for mitochondrial tracking, shape recognition, length measurements and intensities measurements.
Mitochondrial displacement was assessed by the measure of the mitochondrial velocity, the amplitude of its movement and particularly the frequency of bursts and the frequency of movements represented by the periods of movement arrests (FIG. 2). […]

[3] = system: primary human fibroblasts; test: Variations of mitochondrial morphology (mitochondria length, doughnut formation); format: cell-based; conditions: 0.1 to 10 μM, in percent of the vehicle
Excerpt: Measured parameters can include, but are not restricted to, the length of the mitochondria allowing for an appreciation of the equilibrium between fusion and fission, the number of mitochondria in a doughnut shape per cell, the number of mitochondrial derived vesicle per cell and the number of mitochondria undergoing swelling/aggregation per cell.
as §1
Changes in mitochondrial morphology, i.e. in the mitochondria length and in the formation of doughnuts, were observed associated with compound toxicity in a dose dependent manner.
The mitochondria length and the formation of doughnuts are two parameters which indicate the dynamic modulation of the fission-fusion phenomenon that occurs in the mitochondria. When very short, the mitochondria cannot assume a doughnut shape anymore, thus making the loss of the doughnut shapes a signal very significant of a toxicity than cannot be compensate by the fission-fusion dynamics. When the equilibrium of fission-fusion is impaired the fragmentation of the mitochondria is associated with neurodegeneration (Knott et al., 2008).

Row | variations of mitochondria length ([3]; FIG. 3A) | variations of the formation of doughnuts ([3]; FIG. 3B) | Structure (SMILES) | variation of mitochondrial relationship with the cytoskeleton [1] | number of immobilization periods of mitochondria [2] | variations of the mitochondrial motility [2]
1 | induced variations | induced variations | Cc1ccc(NC(=O)c2ccc(CN3CCN(C)CC3)cc2)cc1Nc1nccc(-c2cccnc2)n1 [imatinib mesylate] | did not induce any variation | increasing the number of immobilization periods of mitochondria | induced variations of the mitochondrial motility
2 | – | – | CC(=O)O[C@H]1C(=O)[C@@]2(C)[C@H]([C@H](OC(=O)c3ccccc3)[C@]3(O)C[C@H](OC(=O)[C@H](O)[C@@H](NC(=O)c4ccccc4)c4ccccc4)C(C)=C1C3(C)C)[C@]1(OC(C)=O)CO[C@@H]1C[C@@H]2O [paclitaxel] | affected the relationship of mitochondria with cytoskeleton in a dose-dependent manner | – | –

Reference: patent publication US8497089B2, “Method to predict toxicity using the analysis of dynamic organelle behaviour” (Innovative Concepts in Drug Development (ICDD), priority 2007, dated 2013)
